Consider four compounds from ChEMBL document CHEMBL5465560, “Selectivity Literature for EUbOPEN Chemogenomic Library” (2024).

SMILES strings stand for the structures.

The target of assay [1] is Cyclin-dependent kinase 18 (Homo sapiens) (UniProt Q07002). Kind of assay: Selectivity interaction (KinomeScan (DiscoverX)) EUB0001079a CDK18. Conditions: at 1 µM.
Assay [2] deals with T1, Myosin light chain kinase (Homo sapiens) (UniProt Q32MK0).
T1 sequence (whole entry): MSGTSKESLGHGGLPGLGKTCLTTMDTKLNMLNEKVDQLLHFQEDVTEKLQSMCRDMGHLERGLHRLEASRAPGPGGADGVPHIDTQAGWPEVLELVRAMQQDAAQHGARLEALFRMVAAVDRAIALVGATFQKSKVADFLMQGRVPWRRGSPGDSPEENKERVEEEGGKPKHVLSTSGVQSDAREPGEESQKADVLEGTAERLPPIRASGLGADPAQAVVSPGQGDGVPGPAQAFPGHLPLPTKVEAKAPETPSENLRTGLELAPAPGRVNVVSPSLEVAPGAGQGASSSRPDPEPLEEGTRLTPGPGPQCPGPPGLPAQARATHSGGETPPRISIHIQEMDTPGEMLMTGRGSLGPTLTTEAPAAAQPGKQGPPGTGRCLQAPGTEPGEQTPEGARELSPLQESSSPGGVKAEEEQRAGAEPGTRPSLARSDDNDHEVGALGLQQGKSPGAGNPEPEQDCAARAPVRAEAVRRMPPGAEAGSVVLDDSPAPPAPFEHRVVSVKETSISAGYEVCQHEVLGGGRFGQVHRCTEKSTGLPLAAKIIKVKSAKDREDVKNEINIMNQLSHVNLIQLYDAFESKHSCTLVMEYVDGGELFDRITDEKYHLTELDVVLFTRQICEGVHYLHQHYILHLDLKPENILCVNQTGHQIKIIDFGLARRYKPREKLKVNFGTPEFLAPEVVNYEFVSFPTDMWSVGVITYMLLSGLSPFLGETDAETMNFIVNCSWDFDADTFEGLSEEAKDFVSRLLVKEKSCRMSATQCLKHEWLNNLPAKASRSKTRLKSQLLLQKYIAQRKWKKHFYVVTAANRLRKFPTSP
As to the kind of experiment: Selectivity interaction (KinomeScan (DiscoverX)) EUB0001079a MYLK3. As to conditions: at 1 µM.

The target of assay [3] is Tyrosine-protein kinase receptor Tie-1 (Homo sapiens) (UniProt P35590). Kind of assay: Selectivity interaction (KinomeScan (DiscoverX)) EUB0001049a TIE1. Conditions: at 1 µM.
Sequence of Tyrosine-protein kinase receptor Tie-1 (Homo sapiens) (P35590 whole entry): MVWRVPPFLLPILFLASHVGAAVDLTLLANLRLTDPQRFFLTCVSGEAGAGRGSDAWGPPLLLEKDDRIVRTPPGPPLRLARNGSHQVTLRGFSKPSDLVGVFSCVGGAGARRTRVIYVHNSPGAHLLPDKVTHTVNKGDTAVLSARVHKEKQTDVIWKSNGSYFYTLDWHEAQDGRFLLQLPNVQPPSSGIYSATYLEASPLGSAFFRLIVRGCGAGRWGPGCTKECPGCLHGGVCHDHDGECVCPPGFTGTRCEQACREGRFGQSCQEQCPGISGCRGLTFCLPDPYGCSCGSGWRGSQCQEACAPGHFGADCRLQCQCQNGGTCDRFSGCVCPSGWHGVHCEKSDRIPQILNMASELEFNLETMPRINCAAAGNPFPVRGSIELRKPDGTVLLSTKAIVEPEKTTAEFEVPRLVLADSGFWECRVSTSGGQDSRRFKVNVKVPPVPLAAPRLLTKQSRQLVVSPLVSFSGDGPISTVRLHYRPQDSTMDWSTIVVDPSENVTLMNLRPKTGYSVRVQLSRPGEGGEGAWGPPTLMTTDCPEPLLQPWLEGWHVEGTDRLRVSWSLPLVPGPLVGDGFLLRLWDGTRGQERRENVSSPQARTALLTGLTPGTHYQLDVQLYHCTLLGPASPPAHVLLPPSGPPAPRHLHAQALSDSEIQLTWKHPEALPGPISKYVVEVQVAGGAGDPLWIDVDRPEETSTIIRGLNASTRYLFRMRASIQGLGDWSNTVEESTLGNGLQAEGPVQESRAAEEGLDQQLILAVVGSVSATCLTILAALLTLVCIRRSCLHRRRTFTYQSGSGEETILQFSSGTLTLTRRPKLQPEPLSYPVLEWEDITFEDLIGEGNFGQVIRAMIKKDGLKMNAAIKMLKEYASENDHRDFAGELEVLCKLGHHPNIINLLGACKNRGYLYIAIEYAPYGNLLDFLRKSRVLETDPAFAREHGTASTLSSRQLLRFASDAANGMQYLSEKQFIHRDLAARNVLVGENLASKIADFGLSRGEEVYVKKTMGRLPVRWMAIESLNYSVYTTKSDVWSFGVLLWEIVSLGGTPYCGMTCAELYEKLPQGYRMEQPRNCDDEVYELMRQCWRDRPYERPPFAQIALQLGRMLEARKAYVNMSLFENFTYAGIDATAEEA
The target in assay [4] is Mitogen-activated protein kinase kinase kinase 14 (Homo sapiens) (UniProt Q99558). Kind of assay: Selectivity interaction (KinomeScan (DiscoverX)) EUB0000695a MAP3K14. Conditions: at 100 nM.
Sequence of Mitogen-activated protein kinase kinase kinase 14 (Homo sapiens) (Q99558 whole entry, looked up): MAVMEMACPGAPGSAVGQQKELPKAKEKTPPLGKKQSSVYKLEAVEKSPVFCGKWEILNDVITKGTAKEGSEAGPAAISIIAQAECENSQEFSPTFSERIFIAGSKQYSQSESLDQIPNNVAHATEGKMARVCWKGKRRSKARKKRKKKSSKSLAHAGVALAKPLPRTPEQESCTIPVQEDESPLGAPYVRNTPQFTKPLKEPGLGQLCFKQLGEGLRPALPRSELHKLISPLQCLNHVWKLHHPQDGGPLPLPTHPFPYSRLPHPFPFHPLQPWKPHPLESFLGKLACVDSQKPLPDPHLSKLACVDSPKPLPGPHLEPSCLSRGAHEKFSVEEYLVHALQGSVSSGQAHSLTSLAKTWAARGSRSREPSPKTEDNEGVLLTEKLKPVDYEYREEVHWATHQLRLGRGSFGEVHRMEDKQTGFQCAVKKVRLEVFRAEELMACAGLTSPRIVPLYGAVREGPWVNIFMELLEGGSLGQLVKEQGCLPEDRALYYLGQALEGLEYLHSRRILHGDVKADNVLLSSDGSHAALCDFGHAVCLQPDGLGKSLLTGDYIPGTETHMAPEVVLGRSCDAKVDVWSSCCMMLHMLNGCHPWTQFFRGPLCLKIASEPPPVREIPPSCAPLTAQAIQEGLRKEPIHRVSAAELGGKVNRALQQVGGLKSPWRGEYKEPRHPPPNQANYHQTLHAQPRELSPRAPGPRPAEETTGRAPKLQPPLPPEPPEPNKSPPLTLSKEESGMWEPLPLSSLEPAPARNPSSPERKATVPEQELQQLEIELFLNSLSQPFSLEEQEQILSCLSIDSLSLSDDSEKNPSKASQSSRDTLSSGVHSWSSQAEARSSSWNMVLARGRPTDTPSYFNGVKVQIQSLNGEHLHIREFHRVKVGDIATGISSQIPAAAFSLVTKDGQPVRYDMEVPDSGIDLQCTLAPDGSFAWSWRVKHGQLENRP
In assay [5] the target is T2, Mitogen-activated protein kinase kinase kinase 19 (Homo sapiens) (UniProt Q56UN5).
T2 sequence (whole entry): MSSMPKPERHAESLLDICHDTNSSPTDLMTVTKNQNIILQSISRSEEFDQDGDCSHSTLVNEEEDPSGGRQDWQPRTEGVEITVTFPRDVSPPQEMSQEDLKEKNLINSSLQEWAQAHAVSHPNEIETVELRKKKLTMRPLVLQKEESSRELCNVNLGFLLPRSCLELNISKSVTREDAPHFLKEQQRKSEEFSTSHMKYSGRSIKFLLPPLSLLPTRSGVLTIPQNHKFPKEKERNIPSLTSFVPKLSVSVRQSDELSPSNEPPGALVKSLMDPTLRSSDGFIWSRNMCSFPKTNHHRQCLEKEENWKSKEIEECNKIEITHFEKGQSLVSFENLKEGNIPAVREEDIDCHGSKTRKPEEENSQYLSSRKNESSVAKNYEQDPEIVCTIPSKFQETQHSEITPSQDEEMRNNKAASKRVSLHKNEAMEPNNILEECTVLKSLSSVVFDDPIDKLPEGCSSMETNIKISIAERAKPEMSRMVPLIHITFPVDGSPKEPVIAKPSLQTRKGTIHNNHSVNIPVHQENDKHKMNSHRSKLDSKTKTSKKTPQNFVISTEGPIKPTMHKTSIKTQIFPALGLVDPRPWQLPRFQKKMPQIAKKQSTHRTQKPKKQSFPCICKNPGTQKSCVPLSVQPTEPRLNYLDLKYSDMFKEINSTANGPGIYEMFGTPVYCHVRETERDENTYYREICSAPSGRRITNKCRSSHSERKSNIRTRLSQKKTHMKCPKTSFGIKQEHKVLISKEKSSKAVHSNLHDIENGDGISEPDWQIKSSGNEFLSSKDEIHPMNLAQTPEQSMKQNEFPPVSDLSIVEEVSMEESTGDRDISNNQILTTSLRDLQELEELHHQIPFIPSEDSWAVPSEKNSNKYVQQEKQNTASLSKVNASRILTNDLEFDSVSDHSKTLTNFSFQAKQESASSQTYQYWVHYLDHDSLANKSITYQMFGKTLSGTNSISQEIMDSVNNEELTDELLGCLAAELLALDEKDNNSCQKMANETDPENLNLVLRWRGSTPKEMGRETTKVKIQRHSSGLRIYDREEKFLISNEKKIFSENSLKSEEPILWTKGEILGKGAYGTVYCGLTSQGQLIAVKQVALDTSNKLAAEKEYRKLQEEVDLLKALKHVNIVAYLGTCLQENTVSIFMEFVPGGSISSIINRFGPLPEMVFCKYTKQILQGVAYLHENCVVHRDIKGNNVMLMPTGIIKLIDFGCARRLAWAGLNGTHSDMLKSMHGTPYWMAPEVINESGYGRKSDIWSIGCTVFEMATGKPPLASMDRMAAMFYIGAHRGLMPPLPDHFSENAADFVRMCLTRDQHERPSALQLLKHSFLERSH
Kind of assay: Selectivity interaction (KinomeScan (DiscoverX)) EUB0000618a MAP3K19. Conditions: at 10 µM.

Sequence of Cyclin-dependent kinase 18 (Homo sapiens) (Q07002 whole entry): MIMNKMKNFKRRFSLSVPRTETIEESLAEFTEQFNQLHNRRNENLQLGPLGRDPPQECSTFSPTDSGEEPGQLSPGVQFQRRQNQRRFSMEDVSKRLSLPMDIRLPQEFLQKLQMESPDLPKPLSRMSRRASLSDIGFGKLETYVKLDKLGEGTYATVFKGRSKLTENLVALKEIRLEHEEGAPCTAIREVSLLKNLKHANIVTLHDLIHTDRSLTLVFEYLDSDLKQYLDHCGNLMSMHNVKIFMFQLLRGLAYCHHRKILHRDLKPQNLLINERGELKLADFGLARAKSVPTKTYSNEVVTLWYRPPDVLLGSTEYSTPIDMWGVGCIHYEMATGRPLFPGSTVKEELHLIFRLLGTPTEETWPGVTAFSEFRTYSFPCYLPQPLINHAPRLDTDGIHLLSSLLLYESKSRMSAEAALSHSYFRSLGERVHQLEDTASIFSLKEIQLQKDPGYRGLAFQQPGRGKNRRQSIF

Consider `Nc1cnc(N2CCc3cc(S(=O)(=O)Nc4c(F)cc(Cl)cc4F)cc(N4CCCC4=O)c32)nc1` [TP-020n], for which the % of control in assay [1] and in assay [2] was 100% in each case.

With `COc1cc(Nc2nc(C)cc(-c3cnn4nc(OC)ccc34)n2)cc(C(F)(F)F)c1`, the % of control in assay [3] stood at 84%. In assay [4], `Cc1cc(F)c(C(=O)Nc2cccc(-c3nncn3C(C)C)n2)cc1-n1cnc(C2CC2)c1` returned a % of control of 36%. For the compound `O[C@H]1CC[C@H](Nc2ncc3nc(Nc4c(F)cc(F)cc4F)n([C@H]4CCOC4)c3n2)CC1`, the % of control in assay [5] was found to be 47%.
